{"source": "paper PMC4569013", "about": "“Massive Bioaccumulation and Self‐Assembly of Phenazine Compounds in Live Cells” (Advanced Science, 2015)", "key": {"[1]": {"tested_on": "RAW264.7 macrophages", "experiment": "Cell accumulation experiment, transmitted light microscopy of cellular staining pattern", "type": "cell-based", "method": "Cell Accumulation Experiments and Transmitted Light Microscopic Examination: […] After a 24 h incubation (37 °C, 5% CO2), cells were incubated with solution of clofazmine or its chemical derivatives (300 μL of 5 × 10^−6 m concentration; measured cell viability ranging from 85% to 97% for all compounds tested at this concentration; Figure 1) in DMEM (no phenol red; plus 1 × 10^−3 M sodium pyruvate and 5% FBS). For Compound “I,” 2.5 × 10^−6 M of compound solution in media was used for the RAW 264.7 macrophages incubation because of lower cell viability at higher concentrations (IC50 = (3.95 ± 0.11) × 10^−6 M). A solution of clofazmine or other chemical derivatives was made by a diluting stock solutions (2.5 × 10^−3 M in DMSO; 10 × 10^−3 M stock in DMSO were stored at −80 °C for further use) into DMEM with 5% FBS. […] The extracellular concentration of each compound in each well was maintained by daily replacement of the compound‐containing media. After 72 h of incubation with clofazmine or its derivatives, compound‐containing media were removed and cells were washed twice with media. Live cells in the chambered glasses were examined under inverted transmitted light microscopy (Nikon Eclipse Ti microscope) with a 40× objective and color camera. As a control experiment, fixed cells were also microscopically examined after incubation with the compounds. Cells were seeded on the chambered cover glasses at the density of 1.5 × 10^4 cells cm^−2 (RAW264.7 macrophages) or 2.5 × 10^4 cells cm^−2 (MDCK epithelial cells). After an overnight incubation (37 °C, 5% CO2), media was removed from the wells and cold methanol (−20 °C) was added to each well. After 30 s, remaining methanol was removed by washing with media with 5% FBS. Fixed cells were incubated (37 °C, 5% CO2) with clofazmine or derivatives (300 μL of 5 × 10^−6 M; 2.5 × 10^−6 M for I) in media with 5% FBS. After 72 h, fixed RAW264.7 or MDCK cells were washed with media and examined using the same transmitted microscopy conditions as the live cells."}, "[2]": {"experiment": "Solubility measurements in cell culture media (DMEM) with or without FBS", "type": "physicochemical", "conditions": "at the concentrations added to the cells", "method": "Solubility Measurements: Solutions containing the phenazine derivatives were made in cell culture media (DMEM) with or without FBS (10%). After a 24 h incubation, the solutions were centrifuged (10 000 × g, 10 min), the supernatant was removed and the precipitate was dissolved in 9 M H2SO4. The supernatant was diluted with 10 M NaOH to precipitate the remaining solubilized compound. The diluted supernatant was centrifuged (10 000 × g, 10 min) followed by dissolution of the precipitate in 9 M H2SO4. Both fractions were spectrophotometrically measured with a Biotek microplate spectrophotometer (λ = 540 nm) and phenazine content was determined using calibrated clofazimine standards."}, "[3]": {"parameters": "method as in PMID 21800872", "conditions": "DMEM with 5% FBS; cited from earlier work"}}}
{"smiles": "CC(C)/N=c1\\cc2n(-c3ccc(Cl)cc3)c3ccccc3nc-2cc1Nc1ccc(Cl)cc1", "note": "[Clofazimine, clofazimine, reference compound]", "values": [{"measurement": "Inferred uptake", "setting": "[1]; inferred from staining pattern after 72 hour incubation", "result": "Moderate"}, {"measurement": "Observed cellular staining pattern (Notes)", "setting": "[1]; live cells, 72 hour incubation, 5 × 10^−6 M (2.5 × 10^−6 M for I)", "result": "Orange-brown staining pattern associated with perinuclear cytoplasmic vesicles"}, {"measurement": "Solubility in serum containing media", "setting": "[2]", "result": "stably solubilized"}, {"measurement": "Precipitate formation in media", "setting": "[3]", "result": "did not form visible precipitates"}]}
